Where two headings read alike, the source gives them in different places.
Key:
Assay type in all cases: in vivo
[1] = tested on: Avena fatua (AVEFA); assay: Post-emergence herbicidal action against AVEFA; conditions: visual rating about 3 weeks after treatment
In short: (§1)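 Doses of 320 g/ha or lower, suffixes a, b and c marking different dosages, were applied post-emergence at the one-leaf stage in 600 l/ha water with 0.5% additive. Damage was assessed visually after about 3 weeks in the greenhouse.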

[2] = tested on: Abutilon theophrasti (ABUTH); assay: Post-emergence herbicidal action against ABUTH; conditions: visual rating about 3 weeks after treatment vs untreated controls (100% = plants have died, 0% = like control plants)
In short: as §1

[3] = tested on: Matricaria inodora (MATIN); assay: Post-emergence herbicidal action against MATIN
In short: as §1

[4] = tested on: Polygonum convolvulus (POLCO); assay: Post-emergence herbicidal action against POLCO
In short: as §1

[5] = tested on: Amaranthus retroflexus (AMARE); assay: Post-emergence herbicidal action against AMARE
In short: as §1

[6] = tested on: Digitaria sanguinalis (DIGSA); assay: Post-emergence herbicidal action against DIGSA; conditions: visual rating about 3 weeks after treatment
Description: Seeds of monocotyledonous and dicotyledonous weeds and crop plants are placed in sandy loam in plastic or organic planting pots, covered with soil and cultivated in a greenhouse under controlled growth conditions. 2 to 3 weeks after sowing, the test plants are treated at the one-leaf stage. The compounds of the invention, formulated in the form of wettable powders (WP) or as emulsion concentrates (EC), are then sprayed onto the green parts of the plants as aqueous suspension or emulsion with addition of 0.5% additive at a water application rate of 600 l/ha (converted). After the test plants have been kept in the greenhouse under optimum growth conditions for about 3 weeks, the activity of the preparations is rated visually in comparison to untreated controls. For example, 100% activity=the plants have died, 0% activity=like control plants.
Tables B1 to B13 below show the effects of selected compounds of the general formula (I) according to Table 1 on various harmful plants and at an application rate corresponding to 320 g/ha or lower, which were obtained by the experimental procedure mentioned above. The appendices “a”, “b” and “c” give differentiation by dosage used with otherwise the same harmful plants tested.

[7] = tested on: Setaria viridis (SETVI); assay: Post-emergence herbicidal action against SETVI
In short: as §1

[8] = tested on: Oryza sativa (ORYSA); conditions: crop plant compatibility
In short: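 Foliar application at the one-leaf stage: WP/EC formulation, 0.5% additive, 600 l/ha water. Greenhouse-grown in sandy loam. Endpoint is visual % injury relative to untreated controls at about 3 weeks.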

[9] = tested on: Echinochloa crus-galli (ECHCG); assay: Post-emergence herbicidal action against ECHCG
In short: as §1

[10] = tested on: Pharbitis purpurea (PHBPU); assay: Post-emergence herbicidal action against PHBPU
In short: as §1

[11] = tested on: Lolium rigidum (LOLRI); assay: Post-emergence herbicidal action against LOLRI
In short: as §1

[12] = tested on: Alopecurus myosuroides (ALOMY); assay: Post-emergence herbicidal action against ALOMY; conditions: visual rating about 3 weeks after treatment vs untreated controls (100% = plants have died, 0% = like control plants)
In short: as §1

[13] = tested on: Viola tricolor (VIOTR); assay: Post-emergence herbicidal action against VIOTR
In short: as §1

[14] = tested on: Verconica persica (VERPE); assay: Post-emergence herbicidal action against VERPE
In short: as §1

[15] = 80 g/ha, visual rating about 3 weeks after treatment vs untreated controls (100% = plants have died, 0% = like control plants)
[16] = 320 g/ha, visual rating about 3 weeks after treatment
[17] = 20 g/ha, effect vs untreated controls

Post-emergence action against ORYSA in % [8, 17]	Structure (SMILES)	Post-emergence action against AVEFA in % ([1]; 80 g/ha)	Post-emergence action against AVEFA in % ([1]; 320 g/ha)	Post-emergence action against ABUTH in % ([2]; 80 g/ha)	Post-emergence action against ABUTH in % ([2]; 320 g/ha)	Post-emergence action against MATIN in % ([3]; dosage 80 g/ha)	Post-emergence action against MATIN in % ([3]; dosage 320 g/ha)	Post-emergence action against POLCO in % ([4]; dosage 80 g/ha)	Post-emergence action against POLCO in % ([4]; dosage 320 g/ha)	Post-emergence action against AMARE in % [5, 15]	Post-emergence action against AMARE in % [5, 16]	Post-emergence action against DIGSA in % ([6]; 320 g/ha)	Post-emergence action against SETVI in % ([7]; dosage 80 g/ha)	Post-emergence action against SETVI in % ([7]; dosage 320 g/ha)	Post-emergence action against ECHCG in % ([9]; dosage 80 g/ha)	Post-emergence action against ECHCG in % ([9]; dosage 320 g/ha)	Post-emergence action against PHBPU in % ([10]; dosage 80 g/ha)	Post-emergence action against PHBPU in % ([10]; dosage 320 g/ha)	Post-emergence action against LOLRI in % ([11]; dosage 320 g/ha)	Post-emergence action against ALOMY in % ([12]; 320 g/ha)	also measured
0%	COC(=O)[C@@H](C)Oc1nn(-c2ncccc2F)c(-c2cncc(F)c2)c1Cl [Example I-146]	90%	90%	80%	90%	90%	90%	80%	90%	90%	90%	90%	90%	90%	90%	90%	90%	90%	90%	90%	Post-emergence action against VIOTR in % ([13]; 80 g/ha): 90%; Post-emergence action against VIOTR in % ([13]; 320 g/ha): 90%; Post-emergence action against VERPE in % ([14]; 320 g/ha, VERPE): 90%; Post-emergence action against VERPE in % ([14]; dosage 80 g/ha): 90%
0%	COC(=O)[C@@H](C)Oc1nn(-c2ncccc2F)c(-c2cncc(F)c2)c1I [Example I-197]	90%	90%	90%	90%	80%	90%	90%	90%	90%	90%	90%	90%	90%	90%	90%	90%	100%	90%	90%	Post-emergence action against DIGSA in % ([6]; 80 g/ha): 90%; Post-emergence action against ORYSA in % ([8]; 80 g/ha, effect in comparison to untreated controls): 10%; Post-emergence action against LOLRI in % ([11]; dosage 80 g/ha): 90%; Post-emergence action against ALOMY in % ([12]; 80 g/ha): 90%; Post-emergence action against VIOTR in % ([13]; 80 g/ha): 90%; Post-emergence action against VIOTR in % ([13]; 320 g/ha): 90%; Post-emergence action against VERPE in % ([14]; 320 g/ha, VERPE): 90%; Post-emergence action against VERPE in % ([14]; dosage 80 g/ha): 90%
0%	COC(=O)[C@@H](C)Oc1nn(-c2ncccc2F)c(-c2cncc(F)c2)c1C1CC1 [Example I-144]	90%	90%	80%	90%	90%	90%	80%	80%	90%	90%	90%	90%	90%	90%	90%	90%	90%	90%	90%	Post-emergence action against DIGSA in % ([6]; 80 g/ha): 90%; Post-emergence action against LOLRI in % ([11]; dosage 80 g/ha): 90%; Post-emergence action against ALOMY in % ([12]; 80 g/ha): 90%; Post-emergence action against VIOTR in % ([13]; 80 g/ha): 90%; Post-emergence action against VIOTR in % ([13]; 320 g/ha): 90%; Post-emergence action against VERPE in % ([14]; 320 g/ha, VERPE): 90%; Post-emergence action against VERPE in % ([14]; dosage 80 g/ha): 90%
0%	CCOC(=O)[C@@H](C)Oc1nn(-c2nc(F)ccc2F)c(-c2cncc(F)c2)c1C1CC1 [Example I-177]	90%	90%	90%	90%	90%	90%	90%	90%	90%	90%	90%	90%	90%	100%	100%	90%	90%	100%	100%	Post-emergence action against LOLRI in % ([11]; dosage 80 g/ha): 100%; Post-emergence action against VIOTR in % ([13]; 80 g/ha): 100%; Post-emergence action against VIOTR in % ([13]; 320 g/ha): 100%; Post-emergence action against VERPE in % ([14]; 320 g/ha, VERPE): 100%; Post-emergence action against VERPE in % ([14]; dosage 80 g/ha): 100%

— patent US20240041042A1, “1-(PYRIDYL)-5-AZINYLPYRAZOLE DERIVATIVES, AND THEIR USE FOR CONTROL OF UNDESIRED PLANT GROWTH” (Bayer Aktiengesellschaft, priority 2020, published 2024)
